Source: patent US7410974B2, “Halogenated Quinazolinyl nitrofurans as antibacterial agents” (Ulysses Pharmaceutical Products, Inc., priority 2003, dated 2008)
Values after ≈ are worked out from the molar mass of the structure shown. Read-outs that look alike come from different tables or passages of the source.

Legend:
[1] = system: S. saprophyticus ATCC 15305; experiment: MIC broth microdilution (NCCLS); format: cell-based, Staphylococcus saprophyticus; conditions: Staphylococcus saprophyticus, ATCC15305; S. saprophyticus ATCC 15305; read-out: MIC
Experimental: (§1) Minimal Inhibitory Concentration (MIC) Determination. Bacteria (primary strain panel, TABLE 1). Susceptibility tests were performed following the recommendations from the National Committee for Clinical Standards (NCCLS). The MICs were determined by a broth microdilution technique using a final volume of 100 μl of cation-adjusted Mueller Hinton Broth (MHBCA) and a bacterial inoculum of 10^5-10^6 Colony Forming Units (CFU)/ml. The inocula were verified and precisely determined by applying 10-μl drops of 10-fold dilutions onto Triptic Soy Agar plates. The CFU were counted after an incubation of 24 h at 35° C. Any experiment showing an inoculum that was more or less than 10^5-10^6 CFU/ml was rejected. Control antibiotics and test compounds were prepared at a concentration equivalent to 2-fold the highest desired final concentration. Compounds were then diluted directly in the 96-well microtiter plates by serial 2-fold dilutions using a multichannel pipette. Microtiter plates were incubated during 24 h at 35° C. and growth was recorded by using a microtiterplate reader at 650 nm as well as by visual observation. The MIC was defined as the lowest concentration of compound yielding no visible growth. […] Fastidious bacteria. The medium used for Listeria monocytogenes, Neisseria meningitidis, and Campylobacter jejuni was MHBCA containing 2% laked horse blood. The medium used for Haemophilus influenzae and Branhamella (Moraxella) catarrhalis was HTM as recommended by the NCCLS. Cultures of these fastidious bacteria were incubated at 35° C. in a 5% CO2 atmosphere. […] The medium used for Bacteroides fragilis was Wilkins Chalgren broth and growth was allowed under an anaerobic atmosphere at 35° C. for 48 hours.

S. aureus MRSA COL = experiment: MIC broth microdilution (NCCLS); format: cell-based, Staphylococcus aureus; conditions: Staphylococcus aureus, MRSA, S. aureus MRSA COL; read-out: MIC
Experimental: as §1, with “hours. […]” for “hours.”

E. faecium ATCC 35667 = experiment: MIC broth microdilution (NCCLS); format: cell-based, Enterococcus faecium
Experimental: as §1

S. aureus ATCC 29213 = experiment: MIC broth microdilution (NCCLS); format: cell-based, Staphylococcus aureus; conditions: Staphylococcus aureus, ATCC29213; S. aureus ATCC 29213; read-out: MIC
Experimental: as §1

E. faecalis ATCC 29212 = experiment: MIC broth microdilution (NCCLS); format: cell-based, Enterococcus faecalis; conditions: Enterococcus faecalis, ATCC29212; E. faecalis ATCC 29212; read-out: MIC
Experimental: as §1

E. coli ATCC 25922 = experiment: MIC broth microdilution (NCCLS); format: cell-based, Escherichia coli; conditions: Escherichia coli, ATCC25922, E. coli ATCC 25922 (Reference); read-out: MIC
Experimental: as §1

[2] = system: S. epidermidis ATCC 12228; experiment: MIC broth microdilution (NCCLS); format: cell-based, Staphylococcus epidermidis; conditions: Staphylococcus epidermidis, ATCC12228; S. epidermidis ATCC 12228; read-out: MIC
Experimental: as §1

B. catarrhalis ATCC 8176 [3] = experiment: MIC broth microdilution (NCCLS), fastidious bacteria; format: cell-based, Branhamella (Moraxella) catarrhalis; conditions: Moraxella catarrhalis, ATCC8176, HTM, 5% CO2
Experimental: as §1

H. influenzae ATCC 49766 [4] = experiment: as above; format: cell-based; conditions: Haemophilus influenzae, ATCC49766, HTM, 5% CO2
Experimental: as §1

H. influenzae ATCC 49247 [5] = experiment: as above; format: cell-based; conditions: Haemophilus influenzae, ATCC49247, HTM, 5% CO2
Experimental: as §1

E. faecium VanA = experiment: MIC broth microdilution, antibiotic resistant strain panel; format: cell-based; conditions: Enterococcus faecium; multi-resistant E. faecium VanA; read-out: MIC
Experimental: as §1
Finally, compounds were also tested against populations of various clinical strains (antibiotic resistant strain panel, TABLE 1).

H. influenzae ATCC 49766 [6] = experiment: Minimal Bactericidal Concentration (MBC); format: cell-based; conditions: Haemophilus influenzae, ATCC49766, 99.9% killing
Experimental: (§2) Minimal Bactericidal Concentration (MBC). After the microtiter plates were read for the determination of the MIC, a 10-μl sample of each clear well (at least 5 wells without visible growth) was applied onto TSA plates for viable counts determination.
(§3) Petri dishes were incubated at 35° C. for exactly 24 h and bacterial colonies were counted.

B. catarrhalis ATCC 8176 [7] = experiment: Minimal Bactericidal Concentration (MBC); format: cell-based, Branhamella (Moraxella) catarrhalis; conditions: Moraxella catarrhalis, ATCC8176, 99.9% killing
Experimental: as §2, §3

S. typhimurium ATCC14028 = experiment: MIC broth microdilution (NCCLS); format: cell-based, Salmonella typhimurium; conditions: Salmonella enterica
Experimental: as §1

[8] = system: Y. enterocolytica ATCC 23715; experiment: MIC broth microdilution (NCCLS); format: cell-based, Yersinia enterocolytica; conditions: Yersinia, ATCC23715, read-out: MIC
Experimental: as §1

A. baumannii ATCC 19606 = experiment: MIC broth microdilution (NCCLS); format: cell-based, Acinetobacter baumannii; conditions: Acinetobacter baumannii, ATCC19606, read-out: MIC
Experimental: as §1

H. influenzae ATCC 49247 [9] = experiment: Minimal Bactericidal Concentration (MBC); format: cell-based; conditions: Haemophilus influenzae, ATCC49247, 99.9% killing
Experimental: as §2, §3

[10] = Enterococcus faecium, ATCC35667, E. faecium ATCC 35667, read-out: MIC

Question: How did the MIC [1] turn out when `CO/N=C(\C(=O)N[C@@H]1C(=O)N2C(C(=O)O)=C(CSc3nc(=O)c(=O)[nH]n3C)CS[C@H]12)c1csc(N)n1` [Ceftriaxone] was run?
Answer: 8 µg/mL (≈ 14.4 µM)

Question: And the MIC (S. aureus MRSA COL)?
Answer: 512 µg/mL (≈ 923 µM)

Question: What about the MIC (E. faecium ATCC 35667; [10]) of the same compound?
Answer: 64 µg/mL (≈ 115 µM)

Question: What about the MIC (S. aureus ATCC 29213) of the same compound?
Answer: 2 µg/mL (≈ 3.61 µM)

Question: And the MIC (E. faecalis ATCC 29212)?
Answer: 8 µg/mL (≈ 14.4 µM)

Question: And the MIC (E. coli ATCC 25922)?
Answer: 0.03 to 0.06 µg/mL (≈ 0.0541 to 0.108 µM)

Question: And the MIC [2]?
Answer: 1 µg/mL (≈ 1.8 µM)

Question: Which results are given for `CC[C@H]1OC(=O)[C@H](C)[C@@H](O[C@H]2C[C@@](C)(OC)[C@@H](O)[C@H](C)O2)[C@H](C)[C@@H](O[C@@H]2O[C@H](C)C[C@H](N(C)C)[C@H]2O)[C@](C)(OC)C[C@@H](C)C(=O)[C@H](C)[C@@H](O)[C@]1(C)O` [Clarithromycin]?
Answer: MIC (B. catarrhalis ATCC 8176 [3]): 0.5 µg/mL (≈ 0.668 µM); MIC (E. faecalis ATCC 29212): 16 µg/mL (≈ 21.4 µM); MIC (H. influenzae ATCC 49766 [4]): 128 µg/mL (≈ 171 µM); MIC (H. influenzae ATCC 49247 [5]): 16 µg/mL (≈ 21.4 µM); MIC (E. faecium VanA): > 128 µg/mL; MBC (H. influenzae ATCC 49766 [6]): > 128 µg/mL; MBC (B. catarrhalis ATCC 8176 [7]): 1 µg/mL (≈ 1.34 µM)

Question: What does the source list for `O=C1OCCN1/N=C/c1ccc([N+](=O)[O-])o1` [Furazolidone]?
Answer: MIC [1]: 2 µg/mL (≈ 8.88 µM); MIC (S. aureus MRSA COL): 8 µg/mL (≈ 35.5 µM); MIC (E. faecium ATCC 35667; E. faecium ATCC 35667): >64 µg/mL; MIC (E. faecium ATCC 35667; [10]): > 128 µg/mL; MIC (S. aureus ATCC 29213): 4 to 16 µg/mL (≈ 17.8 to 71.1 µM); MIC (S. typhimurium ATCC14028): 2 µg/mL (≈ 8.88 µM); MIC (E. faecalis ATCC 29212): 8 to 16 µg/mL (≈ 35.5 to 71.1 µM); MIC (E. faecium VanA): 64 µg/mL (≈ 284 µM); MIC [8]: > 16 µg/mL; MIC (E. coli ATCC 25922): 1 to 2 µg/mL (≈ 4.44 to 8.88 µM); MIC [2]: 2 to 4 µg/mL (≈ 8.88 to 17.8 µM); MIC (A. baumannii ATCC 19606): 32 µg/mL (≈ 142 µM)

Question: With `C[C@@H](O)[C@H]1C(=O)N2C(C(=O)O)=C(S[C@@H]3CN[C@H](C(=O)N(C)C)C3)[C@H](C)[C@H]12` [Meropenem] as the compound, how does the MIC [1] read?
Answer: 0.25 µg/mL (≈ 0.652 µM)

Question: And the MIC (S. aureus MRSA COL)?
Answer: 16 µg/mL (≈ 41.7 µM)

Question: And the MIC (E. faecium ATCC 35667; [10])?
Answer: 16 µg/mL (≈ 41.7 µM)

Question: What about the MIC (B. catarrhalis ATCC 8176 [3]) of the same compound?
Answer: 0.002 µg/mL (≈ 0.00522 µM)

Question: And the MIC (S. aureus ATCC 29213)?
Answer: 0.06 µg/mL (≈ 0.156 µM)

Question: And the MIC (E. faecalis ATCC 29212)?
Answer: 2 to 4 µg/mL (≈ 5.22 to 10.4 µM)

Question: What about the MIC (H. influenzae ATCC 49766 [4]) of the same compound?
Answer: 0.03 µg/mL (≈ 0.0782 µM)

Question: And the MIC (H. influenzae ATCC 49247 [5])?
Answer: 0.06 µg/mL (≈ 0.156 µM)

Question: What about the MIC [8] of the same compound?
Answer: > 0.5 µg/mL

Question: And the MBC (H. influenzae ATCC 49766 [6])?
Answer: 0.06 µg/mL (≈ 0.156 µM)

Question: What about the MBC (H. influenzae ATCC 49247 [9]) of the same compound?
Answer: 0.06 µg/mL (≈ 0.156 µM)

Question: And the MBC (B. catarrhalis ATCC 8176 [7])?
Answer: 0.008 µg/mL (≈ 0.0209 µM)

Question: What about the MIC (E. coli ATCC 25922) of the same compound?
Answer: 0.015 to 0.06 µg/mL (≈ 0.0391 to 0.156 µM)

Question: What about the MIC [2] of the same compound?
Answer: 0.06 µg/mL (≈ 0.156 µM)

Question: And the MIC (A. baumannii ATCC 19606)?
Answer: 2 µg/mL (≈ 5.22 µM)
